Results reported in PubChem BioAssay AID1996.
In brackets after ≈: the same amount, converted by molar mass.

Conditions: buffer; pH 7.4; 200.0 µM

Compound | solubility kinetic [µg/mL]
Nc1c(C(=O)N2CCOCC2)sc2nc3c(cc12)CCCC3 | > 47.6
CCOC(=O)CC(N)c1cccc([N+](=O)[O-])c1.Cl (stereo not given) | > 41.2
COc1ccc(C2NC(=O)C(C#N)=C(S)N2c2ccccc2)cc1OC (stereo not given) | > 55.1
CSc1sc(C#N)c2c1/C(=N\O)CCC2 | 1 (≈ 4.2 µM)
O=C(COC(=O)Cc1ccc(Br)cc1)Nc1ccc(Cl)cn1 | 3.9 (≈ 10.2 µM)
Cc1ccc(CONC(=O)c2ccccc2)cc1 | > 36.2
CN(Cc1ccccc1)C(=O)COC(=O)c1ccc(Cl)cc1N | 2.4 (≈ 7.21 µM)
O=C(NCc1ccccc1Cl)C1CC(=O)N(Cc2ccccc2)C1 (stereo not given) | > 51.4
Cc1ccc(NC(=O)C2CCN(C(=O)c3cccs3)CC2)c(C)c1 | 36.6 (≈ 107 µM)
Cc1cc(C)[n+](-c2ccc(Oc3ccccc3)c(S(=O)(=O)[O-])c2)[nH]1 | > 51.7
C=CCNc1nc(Cl)nc(NC2CCCCC2)n1 | 6.9 (≈ 25.8 µM)
Nc1nc(NCc2ccco2)nc(NC2CCCCC2)c1[N+](=O)[O-] | 0.3 (≈ 0.903 µM)
CCOC(=O)N1CCN(Cc2ccc(O)c3ncccc23)CC1 | 34.3 (≈ 109 µM)
CCc1ccc(NC(=O)NC(C)c2ccc3c(c2)OCO3)cc1 (stereo not given) | 1 (≈ 3.2 µM)
Cc1nnc(NC(=O)CN2CC(C)OC(C)C2)s1 (stereo not given) | > 40.6
CC1CCN(C(=O)COc2ncnc3ccccc23)CC1 | 35.7 (≈ 125 µM)
CCN1CCN(c2ccc(S(=O)(=O)N3CCOCC3)cc2N)CC1 | > 53.2
O=c1oc(-c2ccccc2F)nc2scc(-c3ccccc3)c12 | < 0.7
Nc1ccc(C(=O)Nc2ccccc2N)cc1 | > 34.1
COCC(C)N1CC(O)=C(c2nc(-c3ccc(Cl)cc3)cs2)C1=N (stereo not given) | 1.3 (≈ 3.57 µM)

Compound | solubility kinetic [µg/mL]
O=C(NC(=S)Nc1ccccc1C(=O)O)c1ccc2ccccc2c1 | 38.2 (≈ 109 µM)
CCc1ccccc1Nc1nc(-c2cccnc2)cs1 | 3.6 (≈ 12.8 µM)
COC(=O)CC(NC(=O)C1CC1)c1ccc2c(c1)OCO2 (stereo not given) | > 43.7
Cc1ccc(C)c(OC(=O)C2CSC3(C)CCC(=O)N23)c1C (stereo not given) | 44.2 (≈ 138 µM)
CC1CCCC(C)N1C(=S)SCC(=O)O (stereo not given) | > 37.1
N#Cc1ccc(Cl)cc1NC(=O)CSc1cccc[n+]1[O-] | > 48
Cc1ncc([N+](=O)[O-])n1Cc1cccc(F)c1 | > 35.3
COCCNc1oc(-c2ccccc2Cl)nc1S(=O)(=O)c1ccc(C)cc1 | 44.1 (≈ 108 µM)
CC1CCCCC1NC(=O)Cn1cc([N+](=O)[O-])ccc1=O (stereo not given) | 29.1 (≈ 99.2 µM)
COc1ccc(NC(=O)c2sccc2C)cn1 | > 37.2
CCC1CCCCN1C(=O)CSc1nc2ncccc2[nH]1 (stereo not given) | > 45.7
O=C(NC1CCN(C(=S)NCCc2ccccc2)CC1)C1CC1 | 10.7 (≈ 32.3 µM)
COc1cc(NC(=O)CN2C(=O)CN(C)C2=O)c(C)cc1[N+](=O)[O-] | > 50.4
CC(C)(C)c1csc(Sc2ccc([N+](=O)[O-])cn2)n1 | 1.1 (≈ 3.72 µM)
O=C(NCCNC(=O)c1ccco1)c1ccc(Cl)c(Cl)c1 | 44.7 (≈ 137 µM)
CC1(/[N+]([O-])=C/c2ccc(Cl)cc2Cl)CCCCC1=O (stereo not given) | 42.9 (≈ 143 µM)
CC(=O)c1ccc([N+](=O)[O-])c(CS(=O)(=O)c2ccccc2)c1 | < 0.7
O=C1CSC(c2cccnc2)N1Cc1ccc(Cl)cc1 (stereo not given) | 42.6 (≈ 140 µM)
Cc1ccc(/C=C/C(=O)OCC(=O)NC(=O)NCc2ccccc2)cc1 | 3.8 (≈ 10.8 µM)
COc1ccc2c(c1)-c1nc(/N=C/c3ccccc3O)sc1CC2 | 44.5 (≈ 132 µM)

Compound | solubility kinetic [µg/mL]
COC(=O)C1=C(C)N(Cc2ccccc2)C(=O)/C1=C\c1ccco1 | 3.7 (≈ 11.4 µM)
COc1ccccc1OCCNC(=O)CC(NC(C)=O)c1ccccc1 (stereo not given) | 53.4 (≈ 150 µM)
COc1ccc(NC(=O)/C=N/O)cc1 | > 29.1
Cc1ccc(C(=O)NCC(=O)Nc2ccncc2)cc1C | 12.3 (≈ 43.4 µM)
O=S(=O)(Nc1ccccc1N1CCOCC1)c1ccccc1C(F)(F)F | 7.3 (≈ 18.9 µM)
O=C(COC(=O)COc1ccc2c(c1)CCC2)Nc1ccccc1C(F)(F)F | 5.3 (≈ 13.5 µM)
COc1ccccc1NC(=O)c1ccc(NC(=O)c2ccco2)cc1 | 8.5 (≈ 25.3 µM)
CCCCSCCCNC(=O)Nc1ccc(C)c(C)c1 | 1.1 (≈ 3.74 µM)
COC(=O)c1ccccc1N=Cc1c(O)[nH]c(=O)[nH]c1=O | 8.4 (≈ 29 µM)
CN(c1ccccc1)S(=O)(=O)c1ccc2c(c1)oc(=O)n2C | 27.1 (≈ 85.1 µM)
CSc1nc(N)nc(C2CC2)n1 | 24.4 (≈ 134 µM)
CCCCn1c(O)c(C(C)=NCc2ccc3c(c2)OCO3)c(=O)[nH]c1=O | 0.6 (≈ 1.67 µM)
Cc1ccccc1N1CCN(CCCN2C(=O)C3CCCCN3C2=O)CC1 (stereo not given) | 40.7 (≈ 110 µM)
CCOCc1[nH]c(=S)[nH]c(=O)c1Cc1ccc(OC(C)C)cc1 | > 50.2
Cc1cc(C(=O)N2CCCC(Nc3ccc(F)cc3)C2)n(C)n1 (stereo not given) | > 47.5
N#Cc1c(F)cccc1N1CCC(C#N)CC1 | > 34.4
COc1ccc(C(C#N)c2nc3ccccc3nc2Cl)cc1 (stereo not given) | < 0.2
COc1ccccc1C(=O)C1CCCN(C(=O)C2CCCC2)C1 (stereo not given) | > 47.3
Cc1ccc(S(=O)(=O)N2CCCCC2)cc1NC(=O)COc1ccccc1 | 4.3 (≈ 11.1 µM)
O=S(=O)(/C=C/c1cccc(Br)c1)N1CCOCC1 | 40 (≈ 120 µM)
